Laboratory results: ChEMBL document CHEMBL4177599, “The antitubercular activity of various nitro(triazole/imidazole)-based compounds” (Bioorg Med Chem, 2017)
Values after ≈ are worked out from the molar mass of the structure shown.

Key:
[1] = tested on: Mycobacterium tuberculosis; assay: Antitubercular activity against Mycobacterium tuberculosis H37Rv ATCC 27294 after 5 days under aerobic condition; type: functional, organism-based; conditions: for IC50 / IC90 / MIC: H37Rv ATCC 27294, 120 h; for Activity: TDE = time-dependent effect
[2] = tested on: Mycobacterium tuberculosis; assay: Antitubercular activity against Mycobacterium tuberculosis H37Rv ATCC 27294 after 10 days under low oxygen condition followed by incubation under aerobic condition for 28 hrs by LORA; type: functional, organism-based
[3] = tested on: HepG2; assay: Cytotoxicity against human HepG2 cells at 100 uM after 3 days by CellTiter-Glo luminescent cell viability assay; type: cell-based; conditions: HepG2, 72 h
[4] = Solubility of compound in Middlebrook 7H9 broth media at pH 6.4 at 200 uM after 90 mins by UV-VIS spectrophotometric method; type: physicochemical; conditions: buffer, pH 6.4, 1.5 h
[5] = tested on: THP-1; assay: Cytotoxicity against human THP1 cells after 3 days by luminescence assay; type: cell-based; conditions: THP-1, 72 h
[6] = Protein binding in human plasma at 5 uM after 4 hrs by LC-MS/MS analysis
[7] = tested on: Mycobacterium tuberculosis; assay: Antitubercular activity against luxABCDE expressing Mycobacterium tuberculosis H37Rv infected in human THP1 cells measured after 3 days by luminescence assay; type: functional, organism-based; conditions: THP-1, 72 h
[8] = Half life in human liver S9 microsomes at 1 uM in absence of NADPH by LC-MS/MS analysis
[9] = tested on: Mycobacterium tuberculosis; assay: Bactericidal activity against Mycobacterium tuberculosis H37Rv ATCC 27294 assessed as concentration required for 2 log kill after 21 days under aerobic condition by colony forming assay; type: functional; conditions: for MBC: H37Rv ATCC 27294, 504 h; for Activity: TDE = time-dependent effect
[10] = tested on: Mycobacterium tuberculosis; assay: Potency index, ratio of compound MIC to metronidazole MIC for antitubercular activity against Mycobacterium tuberculosis H37Rv ATCC 27294 under low oxygen condition; type: functional
[11] = tested on: L6; assay: Cytotoxicity against rat L6 cells after 2 days by CellTiter-Glo luminescent cell viability assay; type: ADME, cell-based; conditions: L6, 48 h
[12] = tested on: Vero; assay: Cytotoxicity against African green monkey Vero cells after 2 days by CellTiter-Glo luminescent cell viability assay; type: ADME, cell-based; conditions: Chlorocebus sabaeus, 48 h
[13] = in vitro; conditions: human, Caco-2
Description: Efflux ratio of apparent permeability from basolateral to apical over apical to basolateral side in human Caco2 cells monolayer at 10 uM after 2 hrs by LC-MS/MS analysis

[14] = in vitro; conditions: human, Caco-2; remark: listed apart in the source
Description: Apparent permeability of the compound across basolateral side to apical side in human Caco2 cells monolayer at 10 uM after 2 hrs by LC-MS/MS analysis

[15] = Half life in human liver S9 microsomes at 1 uM in presence of NADPH by LC-MS/MS analysis
[16] = in vitro; conditions: human, Caco-2; remark: listed apart in the source
Description: Apparent permeability of the compound across apical side to basolateral side in human Caco2 cells monolayer at 10 uM after 2 hrs by LC-MS/MS analysis

[17] = tested on: Mycobacterium tuberculosis; assay: Antitubercular activity against luxABCDE expressing Mycobacterium tuberculosis H37Rv infected in mouse J774 macrophages assessed as log reduction in bacterial colonies at 20 uM measured after 4 days under aerobic condition by luminescence assay; type: functional

Structure (SMILES)	IC50 [1] [µM]	IC90 [1] [µM]	MIC [1] [µM]	IC50 [2] [µM]	IC90 [2] [µM]	MIC [2] [µM]	solubility [4]	IC50 [7] [µM]	IC90 [7] [µM]	MBC [9] [µM]	also measured
O=C(Cn1cnc([N+](=O)[O-])n1)Nc1cc(-c2ccc(Cl)cc2)no1	96	140	200 (≈ 69.7 µg/mL)	–	–	–	–	–	–	–	–
Cc1ncc([N+](=O)[O-])n1CCO [METRONIDAZOLE]	> 200	> 200	> 200	14 to 36	33 to 82	88 to 200 (≈ 15.1 to 34.2 µg/mL)	–	–	–	–	–
CN[C@@H]1C[C@H]2O[C@@](C)([C@@H]1OC)n1c3ccccc3c3c4c(c5c6ccccc6n2c5c31)C(=O)NC4 [STAUROSPORINE]	–	–	–	–	–	–	–	–	–	–	IC50 [3]: 0.018 µM
CC(=O)N1CCN(c2ccc(OCC3COC(Cn4ccnc4)(c4ccc(Cl)cc4Cl)O3)cc2)CC1 (stereo not given) [KETOCONAZOLE]	–	–	–	–	–	–	Insoluble	–	–	–	–
O=C(Cn1cnc([N+](=O)[O-])n1)Nc1cccc(-c2ccccc2)c1	27	39	31 (≈ 10 µg/mL)	30	46	73 (≈ 23.6 µg/mL)	–	11	12	20 (≈ 6.47 µg/mL)	IC50 [5]: > 50 µM; fraction unbound at 4 h, 5 µM [6]: 0.028; IC50 [3]: 46 µM; half-life at 1 µM [8]: 1.32 h
N#Cc1ccc(-c2ccc(NC(=O)Cn3cnc([N+](=O)[O-])n3)cc2)cc1	> 200	> 200	> 200	–	–	52.1 (≈ 18.1 µg/mL)	–	–	–	–	–
O=C(CCn1cnc([N+](=O)[O-])n1)Nc1ccc(Oc2ccc(Cl)cc2)cc1	15 to 22	22 to 24	24 to 26 (≈ 9.31 to 10.1 µg/mL)	25	27	30 (≈ 11.6 µg/mL)	–	3.4	10	20 (≈ 7.76 µg/mL)	IC50 [5]: 14 µM; Activity [1]: Tde; Ratio [10]: 6 - 9; IC50 [11]: 17 µM; Activity [9]: Tde
O=C(Cn1cnc([N+](=O)[O-])n1)N1CCN(C(c2ccccc2)c2ccc(Cl)cc2)CC1 (stereo not given)	38	48	50 (≈ 22 µg/mL)	51	57	65 (≈ 28.7 µg/mL)	–	8	11	100 (≈ 44.1 µg/mL)	IC50 [12]: 21 µM; IC50 [11]: 32 µM
O=C(Cn1cnc([N+](=O)[O-])n1)Nc1ccc(Cc2ccccc2)cc1	30	38	45 (≈ 15.2 µg/mL)	39	59	94 (≈ 31.7 µg/mL)	–	6.2	12	20 (≈ 6.75 µg/mL)	IC50 [5]: 47 µM
O=C(Cn1cnc([N+](=O)[O-])n1)Nc1ccc(N2CCCCC2)cc1	29	46	48 (≈ 15.9 µg/mL)	99	110	120 (≈ 39.6 µg/mL)	–	11	25	20 (≈ 6.61 µg/mL)	efflux ratio at 2 h, 10 µM [13]: 0.7; IC50 [5]: > 50 µM; fraction unbound at 4 h, 5 µM [6]: 0.233; Papp B→A at 2 h, 10 µM [14]: 27 ×10⁻⁶ cm/s; half-life at 1 µM [15]: 2.68 h; IC50 [3]: > 100 µM; half-life at 1 µM [8]: > 3 h; Papp A→B at 2 h, 10 µM [16]: 38.4 ×10⁻⁶ cm/s
O=C(NCCCn1cnc([N+](=O)[O-])n1)c1cc2ccccc2s1	107	> 200	> 200	–	–	–	Insoluble	–	–	–	–
Cc1ccoc1C(=O)NCCCn1cnc([N+](=O)[O-])n1	41	54	54.5 (≈ 15.2 µg/mL)	–	–	–	Soluble	–	–	–	–
Cc1nc([N+](=O)[O-])cn1CCCNC(=O)c1cc2ccccc2s1	> 200	> 200	> 200	–	–	–	Soluble	–	–	–	–
Cc1nc([N+](=O)[O-])cn1CCCNC(=O)c1sc2ccccc2c1Cl	175	> 200	> 200	–	–	–	Soluble	–	–	–	–
O=C(CCn1cnc([N+](=O)[O-])n1)Nc1ccc(Oc2ccc(F)cc2)cc1	22 to 25	28 to 34	31 to 32 (≈ 11.5 to 11.9 µg/mL)	25	28	31 (≈ 11.5 µg/mL)	–	3.8	16	20 (≈ 7.43 µg/mL)	IC50 [5]: 21 µM; Activity [1]: Tde; Ratio [10]: 6 - 9; IC50 [11]: 23 µM; Activity [9]: Tde
O=C(CCn1cnc([N+](=O)[O-])n1)Nc1ccc(Oc2ccccc2)cc1	28 to 32	39 to 45	48 (≈ 17 µg/mL)	32	49	81 (≈ 28.6 µg/mL)	–	5	17	20 (≈ 7.07 µg/mL)	IC50 [5]: 33 µM; Activity [1]: Tde; IC50 [11]: 32 µM; Activity [9]: Tde
O=C(Cn1cnc([N+](=O)[O-])n1)N1CCN(Cc2ccc(C(F)(F)F)cc2)CC1	25	28	27 (≈ 10.8 µg/mL)	62	100	170 (≈ 67.7 µg/mL)	–	13	14	20 (≈ 7.97 µg/mL)	IC50 [5]: > 50 µM; fraction unbound at 4 h, 5 µM [6]: 0.179; half-life at 1 µM [15]: > 3 h; IC50 [3]: > 100 µM; half-life at 1 µM [8]: > 3 h
O=C(CCn1cnc([N+](=O)[O-])n1)Nc1cc(-c2ccc(F)cc2)on1	66	> 100	> 200	–	–	–	–	–	–	–	–
CO[C@H]1/C=C/O[C@@]2(C)Oc3c(C)c(O)c4c(O)c(c(/C=N/N5CCN(C)CC5)c(O)c4c3C2=O)NC(=O)/C(C)=C\C=C\[C@H](C)[C@H](O)[C@@H](C)[C@@H](O)[C@@H](C)[C@H](OC(C)=O)[C@@H]1C [RIFAMPIN]	0.0046 to 0.0061	0.0049 to 0.014	0.015 to 0.033 (≈ 0.0123 to 0.0272 µg/mL)	0.00072 to 0.015	0.0037 to 0.049	0.022 to 0.18 (≈ 0.0181 to 0.148 µg/mL)	–	–	–	–	–
COCCc1ccc(OCC(O)CNC(C)C)cc1.COCCc1ccc(OCC(O)CNC(C)C)cc1.O=C(O)/C=C/C(=O)O (racemic) [METOPROLOL FUMARATE]	–	–	–	–	–	–	Soluble	–	–	–	–
CC(O)(Cn1cnc([N+](=O)[O-])n1)c1ccc(-c2ccc(C#N)cc2)cc1 (stereo not given)	55	125	> 200	73	176	> 200	–	–	–	100 (≈ 34.9 µg/mL)	IC50 [12]: 66 µM; IC50 [11]: 86 µM
O=C(Cn1ccnc1[N+](=O)[O-])Nc1ccc(Oc2ccc(F)cc2)cc1	44	89	80 (≈ 28.5 µg/mL)	17	31	61 (≈ 21.7 µg/mL)	–	–	–	100 (≈ 35.6 µg/mL)	IC50 [12]: 56 µM; log(activity) [17]: 2.2
O=C(Cn1cnc([N+](=O)[O-])n1)Nc1nc(-c2ccc(Cl)cc2)cs1	34.2	34.9	34.9 (≈ 12.7 µg/mL)	–	–	–	Insoluble	–	–	–	–
O=C(CCCN1CCC(O)(c2ccc(Cl)cc2)CC1)c1ccc(F)cc1 [HALOPERIDOL]	–	–	–	–	–	–	Insoluble	–	–	–	–
